# Data as given in patent publication US5733890A, “Adenylate analogs as potent anti-herpes virus agents” (National Science Council, priority 1996, dated 1998).
# Where two headings read alike, the source gives them in different places.
# How the values were obtained:
# [1] = test system: varicella-zoster virus (VZV); test: Inhibition of cytopathogenicity of VZV in Hela cell culture; format: cell-based; settings: for IC50: read-out: IC50 VZV (YS)
# Method: (§1) We tested the synthesized compounds for their inhibition of cytopathogenicity of herpes simplex type 1 virus (HSV-1), herpes simplex type 2 virus (HSV-2), and varicella-zoster virus (VZV) in Hela cell culture. These compounds include VI, 12, 13, 40, 42, a mixture of VI and 13 (1:1), ara-A 37, and a mixture of 13 and 37 (1:1). Toxicity of these compounds was evaluated by their ability to cause morphological changes in cells at different concentrations.
# [2] = test system: herpes simplex type 2 virus (HSV-2); test: Inhibition of cytopathogenicity of HSV-2 in Hela cell culture; format: cell-based; settings: for IC50: read-out: IC50 HSV-2 (G)
# Method: as §1
# [3] = test system: herpes simplex type 1 virus (HSV-1); test: Inhibition of cytopathogenicity of HSV-1 in Hela cell culture; format: cell-based; settings: for IC50: read-out: IC50 HSV-1 (KOS)
# Method: as §1
# Hela cell = test: Toxicity: morphological changes in Hela cells; format: cell-based; settings: in comparison with Ara-A 37
# Method: as §1
# (§2) ^b Concentration of the compound required to cause microsopically
# (§3) visible change or disruption in about 50% of the cell sheet; and […]
# [4] = Toxicity: morphological changes in Hela cells; format: cell-based; settings: human; Hela cells; average of triplicate determinations; read-out: IC50 Hela cell (concentration required to cause microscopically visible change or disruption in about 50% of the cell sheet)
# Method: as §1, §2, §3
# [5] = Solubility in H2O (phosphate buffer); settings: for water solubility (in words): from Table 2; for solubility in H2O: phosphate buffer 0.10M, 20 h, UV absorbance; for solubility at 20 h: 0.10 m phosphate buffer, aqueous buffer
# Method: Each compound (70 mg) listed in Table 2 was agitated in a 25-mL volumetric flask with phosphate buffer (0.10M, 5.0 mL) for 20 h. This solution was filtered from undissolved solid through a sintered glass funnel (4.0-5.5 mesh ASTM) and the concentration of the solution was determined by UV absorbance (Table 2).
# [6] = molecular target: T1, calf mucosal adenosine deaminase (EC 3.5.4.4) (Bos taurus, UniProt P56658); test: Competitive inhibition of adenosine deaminase; format: biochemical; settings: for type of inhibition of adenosine deaminase / Ki: Ara-A 37 used as substrate; for Ki: Kaplan method
# T1 construct: calf mucosal adenosine deaminase; from tissue; host or cells: calf mucosa
# T1 sequence (P56658 1-363): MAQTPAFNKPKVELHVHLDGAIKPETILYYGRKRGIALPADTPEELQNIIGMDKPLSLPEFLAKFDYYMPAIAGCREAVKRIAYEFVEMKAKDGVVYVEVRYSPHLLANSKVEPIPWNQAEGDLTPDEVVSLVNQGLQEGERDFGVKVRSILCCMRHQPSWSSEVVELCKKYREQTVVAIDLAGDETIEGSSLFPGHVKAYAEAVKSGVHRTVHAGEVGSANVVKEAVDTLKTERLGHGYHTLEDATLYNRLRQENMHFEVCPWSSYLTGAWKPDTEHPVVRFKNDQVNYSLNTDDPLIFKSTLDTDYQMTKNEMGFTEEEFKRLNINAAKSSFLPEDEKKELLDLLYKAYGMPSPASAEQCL
# Text: (§4) By following an established procedure [Ogilvie, K. K.; Nguyen-Ba, N.; Gillen, M. F.; Radatus, B. K.; Cheriyan, U. O.; Hanna, H. R.; Smith, K. O.; Galloway, K. S. Synthesis of A Purine Acyclonucleoside Series Having Pronounced Antiviral Activity. The Glyceropurines. Can. J. Chem. 1984, 62, 241-252.], we determined the rates of deamination of VI, 13, 37, 40, and 42 in the presence of calf mucosal adenosine deaminase (EC 3.5.4.4) in buffer solutions.
# [7] = Partition coefficient (lipophilicity), 1-pentanol / phosphate buffer; settings: P = [Substrate]1-pentanol/[Substrate]H2O
# Method: The layers were separated, and their concentrations were determined by an UV spectrophotometer.
# ^a Partition coefficients were calculated as follows:
# P = [Substrate]1pentanol /[Substrate]H.sbsb.2O.
# [8] = molecular target: T1, calf mucosal adenosine deaminase (EC 3.5.4.4); test: Deamination kinetics of compounds as substrates of adenosine deaminase; format: biochemical; settings: for adenosine deaminase substrate / deamination by / resistance to adenosine deaminase: in words; for rel Vmax: relative, 37 = 1; for complex formation with adenosine deaminase: Table 1; for deamination by / resistance to adenosine deaminase: in vitro
# Text: as §4
# acute type B hepatitis = settings: background; cited from earlier work
# viral replication = settings: background; cited from earlier work
# HSV-1, HSV-2 and VZV = test: Anti-herpes activity in Hela cell culture (all viruses of Table 3); format: cell-based; settings: for effect on antiviral activity by mixing with compound 13: mixed with compound 13 (Table 3)
# Method: as §1
# [9] = background; cited from earlier work
# adenosine deaminase = settings: background; cited from earlier work
# [10] = Human alphaherpesvirus 3, strain YS, Hela cell culture, average of triplicate determinations
# [11] = Human alphaherpesvirus 2, strain G, Hela cell culture, average of triplicate determinations
# [12] = Human alphaherpesvirus 1, strain KOS, Hela cell culture, average of triplicate determinations
Structure (SMILES),antiviral activity against VZV (in words) ([1]; Hela cell culture),antiviral activity against HSV-2 (in words) ([2]; Hela cell culture),antiviral activity against HSV-1 (in words) ([3]; Hela cell culture),cellular toxicity (in words) (Hela cell),CC50 [4],"IC50 [1, 10]","IC50 [2, 11]",water solubility (in words) [5],solubility in H2O [5],type of inhibition of adenosine deaminase [6],Ki [6],"IC50 [3, 12]",log P [7],adenosine deaminase substrate [8],rel Vmax [8],inhibition of viral replication (viral replication),"effect on antiviral activity by mixing with compound 13 (HSV-1, HSV-2 and VZV)",solubility at 20 h [5],complex formation with adenosine deaminase [8],deamination by / resistance to adenosine deaminase [8],further results
"CCOP(=O)(O)CCOCn1cnc2c(N)ncnc21.N [Compound 12, Ammonium Ethyl [2-[(Adenin-9-yl)methoxy]ethyl]phosphonate]",exhibit antiviral activity,exhibit antiviral activity,exhibit antiviral activity,lower cellular toxicity,176 µg/mL,–,–,–,–,–,–,–,–,–,–,–,–,–,–,–,"IC50 ([1]; Human alphaherpesvirus 3, HeLa): 25 µg/mL; IC50 ([2]; Human alphaherpesvirus 2, HeLa): 13.8 µg/mL; IC50 ([3]; Human alphaherpesvirus 1, HeLa): 11.3 µg/mL"
"Nc1ncnc2c1ncn2COCCP(=O)(O)O [Compound 13, 2-[(Adenin-9-yl)methoxy]ethylphosphonic Acid]",exhibit antiviral activity,exhibit antiviral activity,exhibit antiviral activity,lower cellular toxicity,215 µg/mL,16 µg/mL,5.86 µg/mL,higher water solubility,13640 µg/mL,competitive inhibition,18.2 µM,3.98 µg/mL,0.07,adenosine deaminase substrates,1.49 × 10^-6,–,–,–,–,–,inhibition of adenosine deaminase (in words) ([6]; Table 1): inhibits adenosine deaminase; efficiency as inhibitor of adenosine deaminase versus acyclonucleoside VI ([6]; compared with VI): acted more efficiently than acyclonucleoside VI; Vmax compared with that of VI (times less) ([8]; versus VI): ~ 10^-4 times less
"Nc1ncnc2c1ncn2[C@@H]1O[C@H](CO)[C@@H](O)[C@@H]1O [Compound 37, 9-(β-D-arabinofuranosyl)adenine, reference compound]",–,–,–,–,98.8 µg/mL,> 128 µg/mL,> 128 µg/mL,–,–,–,–,10.8 µg/mL,-0.47,–,1,can inhibit viral replication,synergistic effect,400 µg/mL,can form a complex,–,potency in treating a patient having acute type B hepatitis (acute type B hepatitis): potent; lipophilicity (in words) [9]: poor lipophilicity; conversion in vivo to hypoxanthine (Ara-Hx) via deamination by adenosine deaminase (adenosine deaminase): converted in vivo to hypoxanthine (Ara-Hx)
"Nc1ncnc2c1ncn2COCCP(=O)(O)O[C@H]1[C@H](O)[C@H](n2cnc3c(N)ncnc32)O[C@@H]1CO [Compound 40, 9-(β-D-Arabinofuranosyl)adenine-3'-[[2-(Adenin-9-ylmethoxy)ethyl]phosphonate]]",not active against VZV,exhibit antiviral activity,exhibit antiviral activity,lower cellular toxicity,346 µg/mL,> 128 µg/mL,16.3 µg/mL,higher water solubility,2460 µg/mL,–,–,8.97 µg/mL,-0.68,a substrate of adenosine deaminase,7.64 × 10^-2,–,–,–,–,slow rate of deamination,Vmax less than that of Ara-A 37 ([8]; versus Ara-A 37): 92%
"COC(=O)C(C)NP(=O)(CCOCn1cnc2c(N)ncnc21)OC1C(CO)OC(n2cnc3c(N)ncnc32)C1O [Compound 42, 9-(β-D-Arabinofuranosyl)adenine-3'-[(Methoxyalaninyl)[2-(adenin-9-ylmethoxy)ethyl]phosphonates]]",exhibit antiviral activity,exhibit antiviral activity,exhibit antiviral activity,lower cellular toxicity,215 µg/mL,4.82 µg/mL,0.88 µg/mL,higher water solubility,–,–,–,0.38 µg/mL,0.87,–,–,–,–,8250 µg/mL,–,completely resisted deamination,"antiviral activity (in words) (HSV-1, HSV-2 and VZV; Table 3): superior antiviral activity; Km ([8]; adenosine deaminase substrate, buffer solutions): > 1500 µM"
"Nc1ncnc2c1ncn2COCCO [VI, Acyclic adenosine, reference compound]",–,–,–,–,266 µg/mL,6.5 µg/mL,8.26 µg/mL,–,1950 µg/mL,competitive inhibition,142 µM,4.43 µg/mL,0.98,adenosine deaminase substrates,1.52 × 10^-2,can inhibit viral replication,synergistic effect,–,can form a complex,–,–
